Measured values published in ChEMBL document CHEMBL1201862, “PubChem BioAssay data set” (2004).
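48-hour exposure; five concentrations; linearly interpolated endpoints. The concentration for 50% growth inhibition is given as GI50.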 The source made the active and inactive calls. Cut-off read from the data, not from the text of the source: active = GI50 up to about 1.1 µM and inactive = higher.

What was measured:
Assay in all cases: NCI-60 cell line screen, 48 h
DLD-1 = system: DLD-1
DMS-114 = system: DMS-114
HOP-18 = system: HOP-18
KM-20L2 = system: KM-20L2
LXFL 529 = system: LXFL 529
M19-MEL = system: M19-MEL
RXF 631 = system: RXF 631
SNB-78 = system: SNB-78
XF498 = system: XF498

Measured: GI50

O=C(O)c1[nH]c(C(=O)O)c(CC(F)(F)C(F)(F)C(F)(F)F)c1CC(F)(F)C(F)(F)C(F)(F)F
inactive: DLD-1 > 100 µM | DMS-114 > 100 µM | HOP-18 > 100 µM | KM-20L2 > 100 µM | LXFL 529 > 100 µM | M19-MEL > 100 µM | RXF 631 > 100 µM | SNB-78 > 100 µM | XF498 > 100 µM

COC1/C(=C\C(=O)OC(C)(C)C)c2ccccc2N1C(C)=O (stereo unspecified)
inactive: DLD-1 > 100 µM | DMS-114 54.3 µM | HOP-18 > 100 µM | KM-20L2 > 100 µM | LXFL 529 > 100 µM | M19-MEL > 100 µM | RXF 631 > 100 µM | SNB-78 > 100 µM | XF498 57.5 µM

COc1ccc(OC)c(/C=C/[N+](=O)[O-])c1
inactive: DLD-1 2.88 µM | DMS-114 4.74 µM | HOP-18 1.85 µM | KM-20L2 4.69 µM | LXFL 529 1.91 µM | M19-MEL 2.39 µM | RXF 631 2.83 µM | SNB-78 6.84 µM | XF498 2.94 µM

COc1nc(/C=N/NC(N)=S)nc(OC)n1
inactive: DLD-1 > 100 µM | DMS-114 47.5 µM | HOP-18 > 100 µM | KM-20L2 35.4 µM | LXFL 529 > 100 µM | M19-MEL 65.3 µM | RXF 631 44.2 µM | SNB-78 > 100 µM | XF498 > 100 µM
